From ChEMBL document CHEMBL1667843, “Discovery of a potent series of non-steroidal non α-trifluoromethyl carbinol glucocorticoid receptor agonists with reduced lipophilicity” (Bioorg Med Chem Lett, 2011)

Columns and labels:
Glucocorticoid receptor [1] = target: T1, Glucocorticoid receptor (Homo sapiens, UniProt P04150); assay: Displacement of fluorescent-labelled Dexamethasone from glucocorticoid receptor
T1 sequence (P04150 whole entry): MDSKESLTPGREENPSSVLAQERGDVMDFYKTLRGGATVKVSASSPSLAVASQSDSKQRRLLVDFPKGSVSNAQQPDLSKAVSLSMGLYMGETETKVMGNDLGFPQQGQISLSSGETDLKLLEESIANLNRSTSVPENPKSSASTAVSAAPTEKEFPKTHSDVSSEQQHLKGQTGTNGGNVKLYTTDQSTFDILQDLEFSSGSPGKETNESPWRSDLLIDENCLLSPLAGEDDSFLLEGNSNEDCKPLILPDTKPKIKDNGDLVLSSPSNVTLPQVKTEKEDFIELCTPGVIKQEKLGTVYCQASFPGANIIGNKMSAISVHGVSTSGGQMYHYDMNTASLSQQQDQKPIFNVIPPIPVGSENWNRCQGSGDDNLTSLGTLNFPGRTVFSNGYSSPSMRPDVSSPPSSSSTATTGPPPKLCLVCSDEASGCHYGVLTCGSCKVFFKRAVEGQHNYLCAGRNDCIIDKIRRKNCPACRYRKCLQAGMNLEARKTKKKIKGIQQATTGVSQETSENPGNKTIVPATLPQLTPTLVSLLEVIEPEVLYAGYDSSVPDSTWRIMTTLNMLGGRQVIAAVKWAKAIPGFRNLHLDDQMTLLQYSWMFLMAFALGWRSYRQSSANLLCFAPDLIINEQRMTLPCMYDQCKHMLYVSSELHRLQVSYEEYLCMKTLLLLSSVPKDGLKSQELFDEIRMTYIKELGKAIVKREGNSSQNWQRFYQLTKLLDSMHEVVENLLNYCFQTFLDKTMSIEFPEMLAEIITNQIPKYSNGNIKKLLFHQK

Glucocorticoid receptor [2] = target: T1, Glucocorticoid receptor; assay: Agonist activity at GR in human A549 cells transfected with luciferase gene linked to MMTV promoter assessed as luciferase transactivation activity; format: functional, cell-based
Glucocorticoid receptor [3] = target: T1, Glucocorticoid receptor; assay: Agonist activity at glucocorticoid receptor in human A549 cells by NF-kappaB transrepression assay; format: functional, cell-based
[4] = Selectivity ratio of androgen receptor to glucocorticoid receptor
[5] = Selectivity ratio of progesterone receptor to glucocorticoid receptor

SMILES | IC50 (Glucocorticoid receptor [1]) [nM] | IC50 (Glucocorticoid receptor [2]) [nM] | IC50 (Glucocorticoid receptor [3]) [nM] | Selectivity ratio [4] | Selectivity ratio [5]
Cc1cc(NC[C@H](C)NS(=O)(=O)C2CC2)c2cnn(-c3cccc(C(=O)N4CCCC(CO)C4)c3)c2c1 (some centres not stated) | 126 | > 6310 | 251 |  | 
Cc1cc(C)c(S(=O)(=O)N[C@@H](C)CNc2cc(C)cc3c2cnn3-c2cccc(NC3CC3)c2)c(C)c1 | 7.94 | 1.26 | 0.316 |  | 
Cc1cc(NC[C@H](C)NS(=O)(=O)C2CC2)c2cnn(-c3cccc(C(=O)N4CCC[C@H]4C(N)=O)c3)c2c1 | 158 | 3980 | 794 |  | 
CNc1ccc(-n2ncc3c(NC[C@H](C)NS(=O)(=O)c4c(C)cc(C)cc4C)cc(C)cc32)cc1 | 20 | 251 | 5.01 |  | 
CCCS(=O)(=O)N[C@@H](C)CNc1cc(C)cc2c1cnn2-c1cccc(C(=O)NC(C)C)c1 | 12.6 | 79.4 | 20 |  | 
Cc1cc(C)c(S(=O)(=O)N[C@@H](C)CNc2cc(C)cc3c2cnn3-c2cccc(NCC(N)=O)c2)c(C)c1 | 12.6 | 2.51 | 0.251 |  | 
COc1ccc(-n2ncc3c(NC[C@H](C)NS(=O)(=O)c4c(C)cc(C)cc4C)cc(C)cc32)cc1 | 15.8 | 50.1 | 12.6 | > 100 | 10
Cc1cc(C)c(S(=O)(=O)N[C@@H](C)CNc2cc(C)cc3c2cnn3-c2cccc(N3CCCC(CO)C3)c2)c(C)c1 (single isomer, unassigned; isomer 2) | 15.8 | 316 | 39.8 |  | 
COc1cccc(-n2ncc3c(NC[C@H](C)NS(=O)(=O)c4c(C)cc(C)cc4C)cc(C)cc32)c1 |  | 200 | 50.1 | > 100 | 10
Cc1cc(C)c(S(=O)(=O)N[C@@H](C)CNc2cc(C)cc3c2cnn3-c2cccc(N[C@H](C)C(N)=O)c2)c(C)c1 | 15.8 | 2 | 0.2 |  | 
Cc1cc(NC[C@H](C)NS(C)(=O)=O)c2cnn(-c3cccc(C(=O)NC(C)C)c3)c2c1 | 126 | 2000 | 200 |  | 
Cc1cc(NC[C@H](C)NS(=O)(=O)C2CC2)c2cnn(-c3cccc(C(=O)N[C@H](C)C(N)=O)c3)c2c1 | 31.6 | 126 | 3.16 |  | 
Cc1cc(C)c(S(=O)(=O)N[C@@H](C)CNc2cc(C)cc3c2cnn3-c2ccc(NC3CC3)cc2)c(C)c1 | 7.94 | 7.94 | 1.26 |  | 
Cc1cc(NC[C@H](C)NS(=O)(=O)C2CC2)c2cnn(-c3cccc(C(=O)N[C@@H](C)C(N)=O)c3)c2c1 | 39.8 | 200 | 5.01 |  | 
Cc1cc(C)c(S(=O)(=O)N[C@@H](C)CNc2cc(C)cc3c2cnn3-c2cccc(N[C@@H](C)C(N)=O)c2)c(C)c1 | 5.01 | 1.58 | 0.501 |  | 
Cc1cc(NC[C@H](C)NS(=O)(=O)C(C)C)c2cnn(-c3cccc(C(=O)NC(C)C)c3)c2c1 | 39.8 | 50.1 | 7.94 |  | 

SMILES | IC50 (Glucocorticoid receptor [1]) [nM] | IC50 (Glucocorticoid receptor [2]) [nM] | IC50 (Glucocorticoid receptor [3]) [nM] | Selectivity ratio [4] | Selectivity ratio [5]
Cc1cc(C)c(S(=O)(=O)N[C@@H](C)CNc2cc(C)cc3c2cnn3-c2cccc(F)c2)c(C)c1 | 15.8 | 25.1 | 7.94 | > 100 | 10
Cc1cc(C)c(S(=O)(=O)NC[C@@H](C)Nc2cc(C)cc3c2cnn3-c2ccc(F)cc2)c(C)c1 | 12.6 | 50.1 | 6.31 |  | 
Cc1cc(NC[C@H](C)NS(=O)(=O)C2CC2)c2cnn(-c3cccc(C(=O)NC(C)C)c3)c2c1 | 15.8 | 12.6 | 2 |  | 
Cc1cc(C)c(S(=O)(=O)N[C@@H](C)CNc2cc(C)cc3c2cnn3-c2ccc(N[C@@H](C)C(N)=O)cc2)c(C)c1 | 31.6 | 15.8 | 7.94 |  | 
Cc1cc(C)c(S(=O)(=O)N[C@@H](C)CNc2cc(C)cc3c2cnn3-c2cccc(N3CCCC(CO)C3)c2)c(C)c1 (stereo in doubt; 14l) | 25.1 | 251 | 20 |  | 
Cc1cc(C)c(S(=O)(=O)N[C@@H](C)CNc2cc(C)cc3c2cnn3-c2ccc(F)cc2)c(C)c1 | 15.8 | 3.98 | 1.26 | > 100 | 10
Cc1cc(C)c(S(=O)(=O)N[C@@H](C)CNc2cc(C)cc3c2cnn3-c2ccc(S(C)(=O)=O)cc2)c(C)c1 | 31.6 | 12.6 | 5.01 | > 100 | 10
Cc1cc(C)c(S(=O)(=O)N[C@@H](C)CNc2cc(C)cc3c2cnn3-c2ccc(C#N)cc2)c(C)c1 | 15.8 | 5.01 | 2 | > 100 | 10
Cc1cc(C)c(S(=O)(=O)N[C@@H](C)CNc2cc(C)cc3c2cnn3-c2ccc(N[C@H](C)C(N)=O)cc2)c(C)c1 | 25.1 | 158 | 7.94 |  | 
Cc1cc(NC[C@H](C)NS(=O)(=O)C2CC2)c2cnn(-c3cccc(C(=O)N(C)[C@H](C)C(N)=O)c3)c2c1 | 31.6 | 50.1 | 2.51 |  | 
CCN(C[C@](O)(CNc1cccc2c1cnn2-c1ccc(F)cc1)C(F)(F)F)C(=O)c1c(Cl)cccc1Cl | 15.8 | 0.316 | 0.0794 |  | 
Cc1cc(C)c(S(=O)(=O)N[C@@H](C)CNc2cc(C)cc3c2cnn3-c2cccc(N3CCCC(CO)C3)c2)c(C)c1 (single isomer, unassigned; isomer 1) | 25.1 | 631 | 39.8 |  | 
Cc1cc(NC[C@H](C)NS(=O)(=O)C2CC2)c2cnn(-c3cccc(C(=O)NCC(N)=O)c3)c2c1 | 7.94 | 200 | 5.01 |  | 
Cc1cc(C)c(S(=O)(=O)N[C@@H](C)CNc2cc(C)cc3c2cnn3-c2ccc(NCC(N)=O)cc2)c(C)c1 | 15.8 | 63.1 | 3.16 |  | 
Cc1cc(C)c(S(=O)(=O)N[C@@H](C)CNc2cc(C)cc3c2cnn3-c2cccc(NC(C)C)c2)c(C)c1 | 6.31 | 0.501 | 0.126 |  | 
Cc1cc(C)c(S(=O)(=O)N[C@@H](C)CNc2cc(C)cc3c2cnn3-c2ccc(NC(C)C)cc2)c(C)c1 | 12.6 | 10 | 2 |  | 
